Data reported in patent US9951014B2, “Mammalian and bacterial nitric oxide synthase inhibitors” (Northwestern University, priority 2014, dated 2018).
Read-outs that look alike come from different tables or passages of the source.

Key:
human nNOS = human nNOS (Homo sapiens (Human), UniProt P29475); experiment: Oxyhemoglobin NO capture assay with purified NOS; format: biochemical; details: Table 9; read-out: Ki H nNOS
Description: (§1) The oxyhemoglobin NO assays were performed with purified NOSs using a Biotek Gen5™ microplate reader as previously reported. […] For iNOS, calmodulin and CaCl2 were omitted because iNOS is calcium independent. […] The calculated standard deviations of the assays were less than 10% with all NOSs. […] The selectivity of antagonism of nNOS was determined by calculating the ratios of the Ki values with iNOS or eNOS to those with rat nNOS.

murine iNOS = murine iNOS (Mus musculus (Mouse), UniProt P29477); experiment: Oxyhemoglobin NO capture assay with purified NOS; format: biochemical; details: for i/n selectivity: ratio Ki iNOS / Ki rat nNOS
Description: as §1

rat nNOS = rat nNOS (Rattus norvegicus (Rat), UniProt P29476); experiment: Oxyhemoglobin NO capture assay with purified NOS; format: biochemical
Description: as §1

bovine eNOS = bovine eNOS (Bos taurus (Bovine), UniProt P29473); experiment: Oxyhemoglobin NO capture assay with purified NOS; format: biochemical; details: for e/n selectivity: ratio Ki eNOS / Ki rat nNOS
Description: as §1

bsNOS [1] = target: T1, bsNOS (Bacillus subtilis (strain 168), UniProt O34453); experiment: Imidazole displacement, spectral binding constant KS
T1 sequence (O34453 whole entry): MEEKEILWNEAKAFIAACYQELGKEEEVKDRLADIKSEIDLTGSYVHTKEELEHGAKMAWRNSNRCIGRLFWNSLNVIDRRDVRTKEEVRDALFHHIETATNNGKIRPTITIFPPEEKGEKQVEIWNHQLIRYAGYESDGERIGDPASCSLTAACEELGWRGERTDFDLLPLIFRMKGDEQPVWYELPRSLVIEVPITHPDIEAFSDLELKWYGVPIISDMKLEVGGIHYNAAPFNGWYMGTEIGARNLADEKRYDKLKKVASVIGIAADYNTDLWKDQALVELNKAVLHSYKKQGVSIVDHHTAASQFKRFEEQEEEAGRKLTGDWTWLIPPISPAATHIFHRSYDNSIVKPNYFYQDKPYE

[2] = system: S. aureus UAMS1182 (MRSA); experiment: Effect of H2O2 and NOS inhibitors on S. aureus viability (CFU); format: cell-based, Staphylococcus aureus; details: for effect of co-treatment with H2O2 on killing of S. aureus: 200 μM inhibitor + 5 mM H2O2; for S. aureus survival, inhibitor alone: 200 μM inhibitor, WT and Δnos strains
bsNOS [3] = target: T1, bsNOS; details: cited from earlier work
eNOS = eNOS (Bos taurus (Bovine), UniProt P29473); details: literature data (footnotes a, c); read-out: KS eNOS; cited from earlier work
nNOS = nNOS (Rattus norvegicus (Rat), UniProt P29476); details: literature data (footnote b); read-out: KS nNOS; cited from earlier work
B. subtilis = experiment: Effect of oxidative/antimicrobial stress and NOS inhibitors on B. subtilis survival (CFU); format: cell-based, Bacillus subtilis
[4] = WT − KS, wild-type bsNOS, Table 8
[5] = wt B. subtilis, L-NNA, 1 at 500 μM, 2 at 250 μM

CNCCN(C)c1cccc(CCc2cc(C)cc(N)n2)c1 [Compound 10a, N^1-(3-(2-(6-Amino-4-methylpyridin-2-yl)ethyl)phenyl)-N^1,N^2-dimethylethane-1,2-diamine] gave a Ki (human nNOS) of 0.098 ± 0.005 µM, a Ki (murine iNOS; Table 9, read-out: Ki iNOS) of 5.34 µM and an i/n selectivity (murine iNOS; Table 9) of 41. For the same molecule, the Ki (rat nNOS; Table 9, read-out: Ki Rat nNOS) was 0.13 ± 0.01 µM, the Ki (bovine eNOS; Table 9, read-out: Ki eNOS) was 20.2 µM and the e/n selectivity (bovine eNOS; Table 9) was 156.
Cc1cc(N)nc(CCc2cccc(NCCN(C)C)c2)c1 [Compound 10b, N^1-(3-(2-(6-Amino-4-methylpyridin-2-yl)ethyl)phenyl)-N^2,N^2-dimethylethane-1,2-diamine] gave a Ki (human nNOS) of 0.111 ± 0.009 µM, a Ki (murine iNOS; Table 9, read-out: Ki iNOS) of 5.43 µM and an i/n selectivity (murine iNOS; Table 9) of 29. It also gave a Ki (rat nNOS; Table 9, read-out: Ki Rat nNOS) of 0.19 ± 0.012 µM, a Ki (bovine eNOS; Table 9, read-out: Ki eNOS) of 23.7 µM and an e/n selectivity (bovine eNOS; Table 9) of 125.
Work on Cc1cc(N)nc(CCc2cccc(N(C)CCN)c2)c1 [Compound 10c, N^1-(3-(2-(6-Amino-4-methylpyridin-2-yl)ethyl)phenyl)-N^1-methylethane-1,2-diamine] yielded a Ki (human nNOS) of 0.056 ± 0.002 µM, a Ki (murine iNOS; Table 9, read-out: Ki iNOS) of 2.9 µM and an i/n selectivity (murine iNOS; Table 9) of 47. For the same molecule, the Ki (rat nNOS; Table 9, read-out: Ki Rat nNOS) was 0.062 ± 0.0041 µM, the Ki (bovine eNOS; Table 9, read-out: Ki eNOS) was 10.7 µM and the e/n selectivity (bovine eNOS; Table 9) was 172.
For Cc1cc(N)nc(CCc2cccc(N(C)CCCN)c2)c1 [Compound 10d, N^1-(3-(2-(6-Amino-4-methylpyridin-2-yl)ethyl)phenyl)-N^1-methylpropane-1,3-diamine], the Ki (human nNOS) was 0.109 ± 0.003 µM, the Ki (murine iNOS; Table 9, read-out: Ki iNOS) was 4.64 µM and the i/n selectivity (murine iNOS; Table 9) was 11. For the same molecule, the Ki (rat nNOS; Table 9, read-out: Ki Rat nNOS) was 0.43 ± 0.022 µM, the Ki (bovine eNOS; Table 9, read-out: Ki eNOS) was 10.7 µM and the e/n selectivity (bovine eNOS; Table 9) was 25.
CNCCN(C)c1cncc(CCc2cc(C)cc(N)n2)c1 [Compound 14b, N^1-(5-(2-(6-Amino-4-methylpyridin-2-yl)ethyl)pyridin-3-yl)-N^1,N^2-dimethylethane-1,2-diamine] gave a Ki (human nNOS) of 0.059 ± 0.0032 µM and a Ki (bovine eNOS; Table 9, read-out: Ki eNOS) of 12.9 µM.
In the case of Nc1ccc2ccc(CCNCCCc3cccc(F)c3)cc2n1 [Compound 19], the Kd (bsNOS [1]; KS (bsNOS), Table 5) is reported as 3.6 ± 0.8 µM, the Kd (bsNOS [1]; [4]) is reported as 3.6 ± 0.8 µM and the “effect of co-treatment with H2O2 on killing of S. aureus” value [2] is reported as “significantly increases the H2O2-mediated killing”. The “S. aureus survival, inhibitor alone” value [2] was “reduced bacterial survival over time”.
Molecule CNCCN(C)c1cc(CCc2cc(C)cc(N)n2)cc(C(F)(F)F)c1 [Compound 19a, N^1-(3-(2-(6-Amino-4-methylpyridin-2-yl)ethyl)-5-(trifluoromethyl)phenyl)-N^1,N^2-dimethylethane-1,2-diamine] has a Ki (human nNOS) of 0.189 ± 0.016 µM, a Ki (murine iNOS; Table 9, read-out: Ki iNOS) of 8.13 µM and an i/n selectivity (murine iNOS; Table 9) of 122. The Ki (rat nNOS; Table 9, read-out: Ki Rat nNOS) was 0.067 ± 0.0033 µM, the Ki (bovine eNOS; Table 9, read-out: Ki eNOS) was 15.9 µM and the e/n selectivity (bovine eNOS; Table 9) was 238.
CNCCN(C)c1cc(F)cc(CCc2cc(C)cc(N)n2)c1 [Compound 19b, N^1-(3-(2-(6-Amino-4-methylpyridin-2-yl)ethyl)-5-fluorophenyl)-N^1,N^2-dimethylethane-1,2-diamine] gave a Ki (human nNOS) of 0.105 ± 0.0081 µM, a Ki (murine iNOS; Table 9, read-out: Ki iNOS) of 5.56 µM and a Ki (rat nNOS; Table 9, read-out: Ki Rat nNOS) of 0.034 ± 0.0012 µM. The Ki (bovine eNOS; Table 9, read-out: Ki eNOS) was 30.2 µM.
Cc1cc(N)nc(CCc2cc(C#N)cc(NCc3cccc(F)c3)c2)c1 [Compound 23, 3-(2-(6-Amino-4-methylpyridin-2-yl)ethyl)-5-((3-fluorobenzyl)amino)benzonitrile] showed a Kd (bsNOS [1]; KS (bsNOS), Table 5) of 9.6 ± 1.3 µM.
Cc1cc(N)nc(CCc2cc(F)cc(NCc3ccc(F)cc3)c2)c1 [Compound 24, 6-(3-Fluoro-5-((4-fluorobenzyl)amino)phenethyl)-4-methylpyridin-2-amine] gave a Kd (bsNOS [1]; KS (bsNOS), Table 5) of 29 ± 4 µM.
Cc1cc(N)nc(CCc2cc(F)cc(NCc3cccc(F)c3)c2)c1 [Compound 25, 6-(3-Fluoro-5-((3-fluorobenzyl)amino)phenethyl)-4-methylpyridin-2-amine] gave a Kd (bsNOS [1]; KS (bsNOS), Table 5) of 19 ± 5 µM.
For CNCCN(C)Cc1ccc(-c2cc(C)cc(N)n2)cc1 [Compound 26, N1-(4-(6-amino-4-methylpyridin-2-yl)benzyl)-N1,N2-dimethylethane-1,2-diamine], the Kd (bsNOS [1]; KS (bsNOS), Table 5) was 6.3 ± 0.3 µM.
Work on Cc1cc(N)nc(-c2ccc(CNCCc3cccc(F)c3)cc2)c1 [Compound 27, 6-(4-(((3-Fluorophenethyl)amino)methyl)phenyl)-4-methylpyridin-2-amine] yielded a Ki (murine iNOS) of 6.44 µM, a Kd (bsNOS [1]; KS (bsNOS), Table 5) of 8.9 ± 2 µM and a Kd (bsNOS [1]; [4]) of 8.8 ± 2 µM. For the same molecule, the Ki (rat nNOS) was 0.525 µM, the “effect of co-treatment with H2O2 on killing of S. aureus” value [2] was “significantly increases the H2O2-mediated killing” and the “S. aureus survival, inhibitor alone” value [2] was “reduced bacterial survival over time”. For the same molecule, the Ki (bovine eNOS) was 2.87 µM.
With Cc1cc(N)nc(-c2ccc(CNCCCc3cccc(Cl)c3)cc2)c1 [Compound 28, 6-(4-(((3-(3-Chlorophenyl)propyl)amino)methyl)phenyl)-4-methylpyridin-2-amine] the Kd (bsNOS [1]; KS (bsNOS), Table 5) was 3.2 ± 0.1 µM.
Molecule Cc1cc(N)nc(-c2ccc(CNCc3cccc(F)c3)cc2)c1 [Compound 29, 6-(4-(((3-Fluorobenzyl)amino)methyl)phenyl)-4-methylpyridin-2-amine] has a Kd (bsNOS [1]; KS (bsNOS), Table 5) of 1.5 ± 0.3 µM.
Work on CNCCN(C)c1cccc(Cc2cc(C)cc(N)n2)n1 [Compound 31] yielded a Kd (bsNOS [1]; KS (bsNOS), Table 5) of 94 ± 22 µM.
Work on CNCCN(C)Cc1cccc(Cc2cc(C)cc(N)n2)c1 [Compound 32] yielded a Kd (bsNOS [1]; KS (bsNOS), Table 5) of 1.6 ± 0.6 µM.
For N=C(N)NCCC[C@H](N)C(=O)O [L-Arg, L-arginine], the Kd (bsNOS [3]; read-out: WT − KS, wild-type bsNOS, referenced value (25)) is listed as 4.8 µM, the Kd (eNOS) is listed as 1 µM and the Kd (bsNOS [1]; KS bsNOS, imidazole displacement, Tables 1 and 4) is listed as 0.76 µM. For the same molecule, the Kd (nNOS) was 0.72 µM.
With N=C(NCCC[C@H](N)C(=O)O)N[N+](=O)[O-] [L-NNA, N^ω-nitro-L-arginine, reference compound] the “effect on bacterial % survival in the presence of ACR” value (B. subtilis; [5]) was “bacterial % survival decreased” and the “effect on bacterial % survival in the presence of H2O2” value (B. subtilis; [5]) was “trivial effects on bacterial survival”.
In the case of NC(=NCCC[C@H](N)C(=O)O)NO [NOHA, N-omega-hydroxy-L-arginine, reference compound], the Kd (bsNOS [3]; absence of H4B, referenced values (8), (9), read-out: KS bsNOS (−H4B)) is given as 3.2 µM, the “fold difference in KS binding to bsNOS in presence vs absence of H4B” value (bsNOS [1]; 50 μM H4B) is given as 1.2 fold and the Kd (bsNOS [1]; presence of 50 μM H4B, read-out: KS bsNOS (+H4B)) is given as 1.9 ± 0.1 µM.
In the case of acriflavine, the “bacterial growth, % of control” value (B. subtilis; B. subtilis, agent alone (800 μM ACR or 500 μM NOS inhibitor)) is reported as 23 % of control.
